From PubChem BioAssay AID256 (DTP/NCI, 2004)
Where “and” joins values, the source holds several entries; their conditions need not be identical. Equal entries are not always repeated. Toxic doses and inconclusive results are not listed. How the source made its calls: active means survival T/C of 150% or more; inactive means T/C below 125% in these data.

System: CD2F1 mice, L1210 leukemia ip, survival T/C
Assay: NCI In Vivo Anticancer Drug Screen. Data for tumor model L1210 Leukemia (intraperitoneal) in CD2F1 (CDF1) mice
Conditions: higher = longer survival
How it was run: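 Vehicle-treated tumor-bearing mice served as controls (C) for compound-treated mice (T). Reported figure is T divided by C.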

[1] = endpoint: mean survival time, dose: 25.0 mg/kg/injection, schedule: Q01DX009 (ip), vehicle: saline with Tween-80
[2] = endpoint: mean survival time, dose: 50.0 mg/kg/injection, schedule: Q01DX009 (ip), vehicle: saline with Tween-80
[3] = endpoint: mean survival time, dose: 100.0 mg/kg/injection, schedule: Q01DX001 (ip), vehicle: saline with Tween-80
[4] = endpoint: mean survival time, dose: 200.0 mg/kg/injection, schedule: Q01DX001 (ip), vehicle: saline with Tween-80
[5] = endpoint: mean survival time, dose: 400.0 mg/kg/injection, schedule: Q01DX001 (ip), vehicle: saline with Tween-80
[6] = endpoint: mean survival time, dose: 100.0 mg/kg/injection, schedule: Q04DX002 (ip), vehicle: saline with Tween-80
[7] = endpoint: mean survival time, dose: 200.0 mg/kg/injection, schedule: Q04DX002 (ip), vehicle: saline with Tween-80
[8] = endpoint: mean survival time, dose: 100.0 mg/kg/injection, schedule: Q01DX009 (ip), vehicle: saline with Tween-80
[9] = endpoint: mean survival time, dose: 100.0 mg/kg/injection, schedule: Q04DX003 (ip), vehicle: saline with Tween-80
[10] = endpoint: mean survival time, dose: 200.0 mg/kg/injection, schedule: Q01DX009 (ip), vehicle: saline with Tween-80
[11] = endpoint: mean survival time, dose: 200.0 mg/kg/injection, schedule: Q04DX003 (ip), vehicle: saline with Tween-80
[12] = endpoint: mean survival time, dose: 400.0 mg/kg/injection, schedule: Q01DX009 (ip), vehicle: saline with Tween-80
[13] = endpoint: mean survival time, dose: 400.0 mg/kg/injection, schedule: Q04DX003 (ip), vehicle: saline with Tween-80
[14] = endpoint: mean survival time, dose: 75.0 mg/kg/injection, schedule: Q01DX001 (ip), vehicle: other
[15] = endpoint: mean survival time, dose: 150.0 mg/kg/injection, schedule: Q01DX001 (ip), vehicle: other
[16] = endpoint: mean survival time, dose: 50.0 mg/kg/injection, schedule: Q04DX002 (ip), vehicle: saline with Tween-80
[17] = endpoint: median survival time, dose: 12.5 mg/kg/injection, schedule: Q01DX005 (ip), vehicle: saline
[18] = endpoint: median survival time, dose: 25.0 mg/kg/injection, schedule: Q01DX005 (ip), vehicle: saline
[19] = endpoint: median survival time, dose: 50.0 mg/kg/injection, schedule: Q01DX005 (ip), vehicle: saline

Measured: T/C

O=C(Oc1ccc(OC(=O)c2ccccc2)c2c1C(=O)C(CBr)=C(CBr)C2=O)c1ccccc1
inactive: endpoint: mean survival time, dose: 0.75 mg/kg/injection, schedule: Q01DX009 (ip), vehicle: water 93 % of control | endpoint: mean survival time, dose: 1.5 mg/kg/injection, schedule: Q01DX009 (ip), vehicle: water 101 % of control | endpoint: mean survival time, dose: 3.0 mg/kg/injection, schedule: Q01DX009 (ip), vehicle: water 93 % of control and 97 % of control | endpoint: mean survival time, dose: 6.0 mg/kg/injection, schedule: Q01DX009 (ip), vehicle: water 93 % of control and 95 % of control | endpoint: mean survival time, dose: 12.0 mg/kg/injection, schedule: Q01DX009 (ip), vehicle: water 93 % of control | endpoint: mean survival time, dose: 12.5 mg/kg/injection, schedule: Q01DX009 (ip), vehicle: water 86 % of control | endpoint: mean survival time, dose: 24.0 mg/kg/injection, schedule: Q01DX009 (ip), vehicle: water 90 % of control | endpoint: mean survival time, dose: 25.0 mg/kg/injection, schedule: Q01DX009 (ip), vehicle: water 91 % of control | endpoint: mean survival time, dose: 50.0 mg/kg/injection, schedule: Q01DX009 (ip), vehicle: water 87 % of control | endpoint: mean survival time, dose: 100.0 mg/kg/injection, schedule: Q01DX009 (ip), vehicle: water 100 % of control | endpoint: mean survival time, dose: 200.0 mg/kg/injection, schedule: Q01DX009 (ip), vehicle: water 86 % of control

CCCCCCCCCCOC(=O)COc1ccc(C(C)(C)C)cc1
inactive: endpoint: mean survival time, dose: 12.5 mg/kg/injection, schedule: Q01DX009 (ip), vehicle: saline with Tween-80 106 % of control | [1] 97 % of control | [2] 97 % of control

CC1(C)COC(c2ccccc2)OC1
inactive: [3] 95 % of control | [4] 103 % of control | [5] 101 % of control

CC(C)NC(=O)Nc1ccccc1Cl
inactive: [6] 93 % of control | [7] 97 % of control | endpoint: mean survival time, dose: 400.0 mg/kg/injection, schedule: Q04DX002 (ip), vehicle: saline with Tween-80 104 % of control

C=CCNS(=O)(=O)c1ccc(C)cc1
inactive: [8] 93 % of control | [9] 98 % of control | [10] 100 % of control | [11] 98 % of control | [12] 90 % of control | [13] 94 % of control

Cc1cc(NC(C)CN(C)C)nc(/N=C(\N)Nc2ccc(Cl)c(Cl)c2)n1 (stereo not given)
inactive: [9] 96 % of control

CC(C)CCCC(C)C1CCC2C3CC(C(=O)O)C(C)(CCC(=O)O)C3CCC12C (stereo not given)
inactive: [14] 108 % of control | [15] 104 % of control

Nc1ccc(N=Nc2ccc(N(CCCl)CCCl)cc2)cc1
inactive: endpoint: mean survival time, dose: 33.0 mg/kg/injection, schedule: Q01DX001 (ip), vehicle: Klucel (hydroxypropylcellulose) (HPC) 96 % of control | endpoint: mean survival time, dose: 66.0 mg/kg/injection, schedule: Q01DX001 (ip), vehicle: Klucel (hydroxypropylcellulose) (HPC) 91 % of control | endpoint: mean survival time, dose: 132.0 mg/kg/injection, schedule: Q01DX001 (ip), vehicle: Klucel (hydroxypropylcellulose) (HPC) 91 % of control

O=S1(=O)C[CH-]C1.[C-]#[O+].[C-]#[O+].[C-]#[O+].[W].[c-]1[c-][c-][cH-][c-]1
inactive: [16] 93 % of control | [6] 101 % of control | [7] 89 % of control

CC1=C(C)C(=O)C(SC2CC(=O)OC2=O)=C(C)C1=O (stereo not given)
inactive: endpoint: mean survival time, dose: 25.0 mg/kg/injection, schedule: Q01DX001 (ip), vehicle: saline with Tween-80 108 % of control | endpoint: mean survival time, dose: 50.0 mg/kg/injection, schedule: Q01DX001 (ip), vehicle: saline with Tween-80 96 % of control | [3] 104 % of control

O=C(CC(O)(C(F)(F)F)C(F)(F)F)C(Cl)C(O)(C(F)(F)F)C(F)(F)F (stereo not given)
inactive: endpoint: mean survival time, dose: 100.0 mg/kg/injection, schedule: Q01DX001 (ip), vehicle: other 102 % of control

CC(=O)OCC1OC(n2ncc3c2ncn2nnnc32)C(OC(C)=O)C1OC(C)=O (stereo not given)
inactive: endpoint: mean survival time, dose: 18.75 mg/kg/injection, schedule: Q01DX005 (ip), vehicle: distilled water + alcohol 100 % of control | endpoint: mean survival time, dose: 37.5 mg/kg/injection, schedule: Q01DX005 (ip), vehicle: distilled water + alcohol 91 % of control | endpoint: mean survival time, dose: 75.0 mg/kg/injection, schedule: Q01DX005 (ip), vehicle: distilled water + alcohol 103 % of control | endpoint: mean survival time, dose: 150.0 mg/kg/injection, schedule: Q01DX005 (ip), vehicle: distilled water + alcohol 100 % of control | endpoint: mean survival time, dose: 300.0 mg/kg/injection, schedule: Q01DX005 (ip), vehicle: distilled water + alcohol 103 % of control

O=Nc1ccc(NO)c2ccccc12
inactive: endpoint: mean survival time, dose: 50.0 mg/kg/injection, schedule: Q01DX009 (ip), vehicle: saline 98 % of control | endpoint: mean survival time, dose: 100.0 mg/kg/injection, schedule: Q01DX009 (ip), vehicle: saline 102 % of control | endpoint: mean survival time, dose: 200.0 mg/kg/injection, schedule: Q01DX009 (ip), vehicle: saline 102 % of control

CCN1CCSC1=S
inactive: [14] 102 % of control | [15] 100 % of control | endpoint: mean survival time, dose: 300.0 mg/kg/injection, schedule: Q01DX001 (ip), vehicle: other 103 % of control

COc1ccc(CCNC(=S)NN)cc1OC
inactive: endpoint: mean survival time, dose: 25.0 mg/kg/injection, schedule: Q04DX002 (ip), vehicle: saline with Tween-80 106 % of control | [16] 95 % of control | [6] 114 % of control | [7] 103 % of control

CCCCCCCCC(=O)NCCCNC(=O)CCCCCCCC
inactive: endpoint: mean survival time, dose: 75.0 mg/kg/injection, schedule: Q04DX003 (ip), vehicle: saline 88 % of control | endpoint: mean survival time, dose: 150.0 mg/kg/injection, schedule: Q04DX003 (ip), vehicle: saline 88 % of control | endpoint: mean survival time, dose: 300.0 mg/kg/injection, schedule: Q04DX003 (ip), vehicle: saline 103 % of control

N#CC(C#N)=c1ccc(=C(C#N)C#N)cc1
inactive: [9] 98 % of control

COc1c(NC(=O)Nc2ccccc2C)cccc1[N+](=O)[O-]
inactive: [16] 94 % of control | [6] 90 % of control and 96 % of control

O=c1cccc[nH]1 (tested in a mixture with another compound)
inactive: [2] 108 % of control | endpoint: mean survival time, dose: 100.0 mg/kg/injection, schedule: Q04DX003 (ip), vehicle: saline 97 % of control | endpoint: mean survival time, dose: 200.0 mg/kg/injection, schedule: Q04DX003 (ip), vehicle: saline 97 % of control

Clc1ccc2ccccc2c1C(Cl)Cl
inactive: [1] 96 % of control | [2] 95 % of control | [8] 98 % of control | [9] 91 % of control | [10] 102 % of control | [11] 98 % of control | [12] 102 % of control | [13] 93 % of control

CN(Cc1cnc2nc(N)nc(N)c2n1)c1ccc(C(=O)NC(CCC(=O)O)C(=O)NC(CC(=O)O)C(=O)O)cc1 (stereo not given)
inactive: endpoint: mean survival time, dose: 1.0 mg/kg/injection, schedule: Q01DX009 (ip), vehicle: sodium bicarbonate 100 % of control | endpoint: mean survival time, dose: 2.0 mg/kg/injection, schedule: Q01DX009 (ip), vehicle: sodium bicarbonate 111 % of control | endpoint: mean survival time, dose: 5.0 mg/kg/injection, schedule: Q01DX009 (ip), vehicle: sodium bicarbonate 121 % of control | endpoint: mean survival time, dose: 50.0 mg/kg/injection, schedule: Q01DX009 (ip), vehicle: sodium bicarbonate 105 % of control

C[Si](C)(C)Oc1ccc(O[Si](C)(C)C)cc1
inactive: endpoint: mean survival time, dose: 100.0 mg/kg/injection, schedule: Q04DX003 (ip), vehicle: other 109 % of control | endpoint: mean survival time, dose: 200.0 mg/kg/injection, schedule: Q04DX003 (ip), vehicle: other 97 % of control | endpoint: mean survival time, dose: 400.0 mg/kg/injection, schedule: Q04DX003 (ip), vehicle: other 106 % of control

CC(C)(C)N1CCOCC1
inactive: [9] 100 % of control

CC(CCOc1ccc(Cl)cc1Cl)C(=O)O (stereo not given)
inactive: [6] 104 % of control | [7] 86 % of control

COC1OC(CCl)C(Cl)C(Cl)C1O (stereo not given)
inactive: [3] 102 % of control | [4] 96 % of control | [5] 102 % of control

CC(NNC(=S)N(C)C1CCCCC1)c1cc2ccccc2cn1 (stereo not given)
inactive: endpoint: median survival time, dose: 12.5 mg/kg/injection, schedule: Q01DX005 (ip), vehicle: saline with Tween-80 103 % of control | [17] 97 % of control | endpoint: median survival time, dose: 25.0 mg/kg/injection, schedule: Q01DX005 (ip), vehicle: saline with Tween-80 120 % of control | [18] 102 % of control and 109 % of control | endpoint: median survival time, dose: 50.0 mg/kg/injection, schedule: Q01DX005 (ip), vehicle: saline with Tween-80 90 % of control | [19] 113 % of control and 114 % of control

Cc1nc2c(c[n+]1C)CN1C=Nc3c(ncn3C3OC(CO)C(O)C3O)C1=N2 (stereo not given)
inactive: [17] 98 % of control | [18] 100 % of control | [19] 100 % of control | endpoint: median survival time, dose: 100.0 mg/kg/injection, schedule: Q01DX005 (ip), vehicle: saline 100 % of control | endpoint: median survival time, dose: 200.0 mg/kg/injection, schedule: Q01DX005 (ip), vehicle: saline 100 % of control
